Literature values in article PMC11437099 (Nature Communications, 2024).
Like-named read-outs stand apart in the source and are kept apart here.

Tests used:
[1] = system: patients with type 2 diabetes
[2] = system: patients with type 2 diabetes; remark: listed apart in the source

| Substance | Body weight change from baseline ([1]; 0.75 and 1.5 mg doses at 26 weeks) [kg] | HbA1c change from baseline ([2]; 0.75 and 1.5 mg at 26 weeks) [%] | Participants achieving HbA1c <7.0% ([2]; 0.75 and 1.5 mg at 26 weeks) | Body weight change (weight loss) ([1]; 1.2 and 1.8 mg at 52 weeks) [kg] | Participants achieving HbA1c <7.0% ([2]; 1.2 and 1.8 mg at 52 weeks) |
| --- | --- | --- | --- | --- | --- |
| dulaglutide: approved GLP-1 analog (Trulicity) | −1.0 to −1.5 | −1.25 to −1.46 | 63–72% |  |  |
| liraglutide: approved GLP-1 analog (Victoza, Saxenda) (HAEGTFTSDVSSYLEGQAAKEFIAWLVRGRG; chains of the INN, looked up) |  |  |  | −2.05 to −2.45 | 43–51% |
